According to US10323027B2, “2,3-dihydro-4H-1,3-benzoxazin-4-one derivatives as modulators of cholinergic muscarinic M1 receptor” (Takeda Pharmaceutical Company Limited, priority 2015, dated 2019):

What was measured:
[1] = molecular target: T1, human M1 receptor (hCHRM1) (Homo sapiens, UniProt P11229); assay: Measurement of M1 receptor positive allosteric modulator (M1PAM) activity, Ca2+ fluorescence by FDSS/μ cell (Experimental Example 2); type: cell-based; settings: for activity (%) at 10 μM: 10 μM test compound, 100% = acetylcholine 1 μM, 0% = DMSO; for EC50: inflection point of concentration-dependent curve, in presence of acetylcholine at EC20 (0.8-1.0 nM), CHO-K1 cells expressing hCHRM1, read-out: IP value
T1 construct: expressed in transfected cells
T1 sequence (P11229 1-460): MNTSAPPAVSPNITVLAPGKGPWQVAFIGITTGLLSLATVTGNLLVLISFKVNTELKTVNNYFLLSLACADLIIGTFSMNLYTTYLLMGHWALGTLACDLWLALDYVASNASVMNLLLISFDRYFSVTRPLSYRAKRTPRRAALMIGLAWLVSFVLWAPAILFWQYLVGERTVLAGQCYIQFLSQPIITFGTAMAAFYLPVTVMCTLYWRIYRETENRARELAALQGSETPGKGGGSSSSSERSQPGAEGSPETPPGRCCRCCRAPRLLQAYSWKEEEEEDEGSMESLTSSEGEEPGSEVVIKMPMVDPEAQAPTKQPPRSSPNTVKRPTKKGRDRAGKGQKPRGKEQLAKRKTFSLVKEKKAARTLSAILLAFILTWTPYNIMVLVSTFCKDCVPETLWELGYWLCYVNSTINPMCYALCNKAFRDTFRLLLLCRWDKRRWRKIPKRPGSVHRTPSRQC
Procedure: Measurement of M1 Receptor Positive Allosteric Modulator (M1PAM) Activity
The activity of a test compound in the presence of acetylcholine at EC20 concentration (final concentration 0.8-1.0 nM), which affords an action corresponding to about 20% of the maximum activity, was measured as PAM activity. The method is as follows. CHO-K1 cells stably expressing a human M1 receptor (hCHRM1) were plated on a 384-well black clear bottom plate (BD Falcon) at 5,000 cells/well, and cultured in an incubator at 37° C., 5% CO2 for 1 day. The medium in the cell plate was removed, and a dye solution (prepared by adding Recording medium (DOJINDO LABORATORIES) to a final concentration of 1×concentration, Fluo-4 AM (DOJINDO LABORATORIES) to a final concentration of 2.5 μg/mL, Pluronic F127 (DOJINDO LABORATORIES) to a final concentration of 0.08%, and probenecid (DOJINDO LABORATORIES) to a final concentration of 1.25 mM to assay buffer (HBSS (Invitrogen), 20 mM HEPES (Invitrogen), 0.1% BSA (Wako Pure Chemical Industries, Ltd.))) was added at 30 μL/well. The cells were left standing in the incubator at 37° C., 5% CO2 for 30 min, and further left standing at room temperature for 30 min. A test compound prepared by diluting with assay buffer containing 3.2-4.0 nM acetylcholine was added at 10 μL/well, and the fluorescence was measured by FDSS/μ cell (Hamamatsu Photonics K.K.) for 1 min every 1 second. With the definition that the amount of change in the fluorescence on addition of acetylcholine (final concentration 1 μM) is 100% and that on addition of DMSO instead of a test compound is 0%, the activity (%) of the test compound was calculated, and the inflection point in the concentration-dependent curve of the test compound was calculated as IP values.

[2] = molecular target: T1, human M1 receptor (hCHRM1); assay: Measurement of M1 receptor positive allosteric modulator (M1PAM) activity, Ca2+ fluorescence by FLIPRtetra (Experimental Example 1); type: cell-based; settings: for activity (%) at 10 μM: 10 μM test compound, 100% = acetylcholine 1 μM, 0% = DMSO; for EC50: inflection point of concentration-dependent curve, in presence of acetylcholine at EC20 (0.8-1.0 nM), CHO-K1 cells expressing hCHRM1, read-out: IP value
In short: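 CHO-K1 cells stably expressing hCHRM1, loaded with Fluo-4 AM (probenecid), received compound with acetylcholine at EC20 (final 0.8-1.0 nM); Ca2+ fluorescence read 1 min by FLIPRtetra. Activity scaled 0% (DMSO) to 100% (1 μM acetylcholine); IP from inflection point of concentration curve.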

Compound	activity (%) at 10 μM [1]	EC50 [1]	activity (%) at 10 μM [2]	EC50 [2]
Cc1c(Cc2ccc(Cl)nc2)cc2c(c1Cl)OCN(CC1CCCO1)C2=O (stereo not drawn) [Example 87, 8-chloro-6-((6-chloropyridin-3-yl)methyl)-7-methyl-3-(tetrahydrofuran-2-ylmethyl)-2,3-dihydro-4H-1,3-benzoxazin-4-one]	–	–	93%	160 nM
Cn1cc(-c2ccc(Cc3ccc4c(c3)C(=O)N(c3ccccc3F)CO4)cn2)cn1 [Example 88, 3-(2-fluorophenyl)-6-((6-(1-methyl-1H-pyrazol-4-yl)pyridin-3-yl)methyl)-2,3-dihydro-4H-1,3-benzoxazin-4-one]	–	–	115%	230 nM
Cc1c(Cc2ccc(-c3ccnc(F)c3)nc2)cc2c(c1F)OCN([C@H]1CCC[C@@H]1O)C2=O [Example 89, 8-fluoro-6-((2′-fluoro-2,4′-bipyridin-5-yl)methyl)-3-((1S,2S)-2-hydroxycyclopentyl)-7-methyl-2,3-dihydro-4H-1,3-benzoxazin-4-one]	102%	12 nM	–	–
Cc1cc(-c2ccc(Cc3cc4c(c(F)c3C)OCN([C@H]3CCC[C@@H]3O)C4=O)cn2)ccn1 [Example 90, 8-fluoro-3-((1S,2S)-2-hydroxycyclopentyl)-7-methyl-6-((2′-methyl-2,4′-bipyridin-5-yl)methyl)-2,3-dihydro-4H-1,3-benzoxazin-4-one]	102%	4 nM	–	–
CCn1ccc(-c2ccc(Cc3cc4c(c(F)c3C)OCN([C@H]3CCC[C@@H]3O)C4=O)cn2)n1 [Example 91, 6-((6-(1-ethyl-1H-pyrazol-3-yl)pyridin-3-yl)methyl)-8-fluoro-3-((1S,2S)-2-hydroxycyclopentyl)-7-methyl-2,3-dihydro-4H-1,3-benzoxazin-4-one]	105%	4 nM	–	–
Cc1c(Cc2ccc(-c3ccn(C)n3)nc2)cc2c(c1F)OCN([C@H]1CCCC[C@@H]1O)C2=O [Example 92, 8-fluoro-3-((1S,2S)-2-hydroxycyclohexyl)-7-methyl-6-((6-(1-methyl-1H-pyrazol-3-yl)pyridin-3-yl)methyl)-2,3-dihydro-4H-1,3-benzoxazin-4-one]	101%	3.4 nM	–	–

Continued, values first:

activity (%) at 10 μM [1]	EC50 [1]	activity (%) at 10 μM [2]	EC50 [2]	Compound
102%	13 nM	–	–	Cc1cc2c(cc1Cc1ccc(-n3cccn3)nc1)C(=O)N([C@H]1CCCC[C@@H]1O)CO2 (single isomer, unassigned) [Example 95]
99%	–	–	–	Cc1c(Cc2ccc(-n3cccn3)nc2)cc2c(c1Cl)OCN([C@H]1CCC[C@@H]1O)C2=O (single isomer, unassigned) [Example 97, 8-chloro-3-(trans-2-hydroxycyclopentyl)-7-methyl-6-((6-(1H-pyrazol-1-yl)pyridin-3-yl)methyl)-2,3-dihydro-4H-1,3-benzoxazin-4-one (optical isomer: longer retention time)]
–	–	89%	3.8 nM	O=C1c2cc(Cc3ccc(Cl)nc3)c3ccccc3c2OCN1[C@H]1COCC[C@@H]1O [Example 125, 1,5-anhydro-2-(6-((6-chloropyridin-3-yl)methyl)-4-oxo-2H-naphtho[2,1-e][1,3]oxazin-3(4H)-yl)-2,4-dideoxy-L-threo-pentitol]
–	–	91%	3.6 nM	Cc1ccc(Cc2cc3c(c4ccccc24)OCN([C@H]2COCC[C@@H]2O)C3=O)cn1 [Example 133, 1,5-anhydro-2,4-dideoxy-2-(6-((6-methylpyridin-3-yl)methyl)-4-oxo-2H-naphtho[2,1-e][1,3]oxazin-3(4H)-yl)-L-threo-pentitol]
–	–	104%	14 nM	Cc1ccc(Cc2cc3c(c(C)c2C)OCN([C@H]2COCC[C@@H]2O)C3=O)cn1 [Example 137, 1,5-anhydro-2,4-dideoxy-2-(7,8-dimethyl-6-((6-methylpyridin-3-yl)methyl)-4-oxo-2H-1,3-benzoxazin-3(4H)-yl)-L-threo-pentitol]
